The subject of this series is human RAGE. The series can be described thus: psiCHECK on-target activity at 9 concentration points in HEK293A cells, dual-luciferase reporter (Example 8). To be noted: psiCHECK system, Table 9. The series is classed as cell-based. The source says: As used herein, the term "inhibit" is used interchangeably with "decrease", "silence", "down-regulate", "repress", and other similar terms, and includes any level of inhibition. Inhibition can be assessed in terms of a decrease in the absolute or relative level of one or more of these variables relative to a control level. The control level can be any type of control level used in the art, such as a pre-dose baseline level or a level determined from an untreated or control (e.g., buffer-only control or inert agent control) treated subject, cell, or sample. […] The inhibition rate of target gene expression can be measured using a Dual-Glo® Luciferase Assay System: the Firefly chemiluminescence value (Fir) and the Renilla chemiluminescence value (Ren) are each read, and the relative value Ratio = Ren/Fir is calculated. In the present disclosure, the ratio of the remaining mRNA expression level (or residual activity%) = Ratio (RNAi agent-treated group)/Ratio (RNAi agent-free control group), and the inhibition rate (%) = 100% - remaining mRNA expression level (%).
RNAi agents were subjected to an in vitro molecular-level simulation of on-target activity screening in HEK293A cells using 9 concentration gradients.
HEK293A cells were cultured at 37 °C with 5% CO2 in a DMEM high-glucose culture medium containing 10% fetal bovine serum. 24 h prior to transfection, the HEK293A cells were seeded into a 96-well plate at a density of 1 × 10^4 cells per well, with each well containing 100 µL of the culture medium.
The cells were co-transfected with the RNAi agents and corresponding plasmids using Lipofectamine2000 (ThermoFisher, 11668019) according to the instructions, with 0.3 µL of Lipofectamine2000 used per well. The amount of plasmids for transfection was 20 ng per well. For on-target sequence plasmids, a total of 9 concentration points were set for the RNAi agents; the highest concentration point final concentration was 20 nM, and a 3-fold serial dilution was performed to obtain 20.0000 nM, 6.6667 nM, 2.2222 nM, 0.7407 nM, 0.2469 nM, 0.0823 nM, 0.0274 nM, 0.0091 nM, and 0.0030 nM. 24 h after transfection, the on-target levels were determined using a Dual-Luciferase Reporter Assay System (Promega, E2940). Table 9. The IC50 activity of RNAi agents in a psiCHECK system
For orientation: Reporter assays use an easily measured gene product as a stand-in for the process of interest.

The term IC50 denotes the midpoint of a concentration-inhibition curve. A higher IC50 goes with a need for much substance. On to “TJR103638-TJ-16: RNAi agent containing targeting ligand I-14: SS strand SEQ ID NO: 26, AS strand SEQ ID NO: 52 (sense CCUUUUCUUUUUCCCUUGA; antisense UCAAGGGAAAAAGAAAAGGGA; targeting ligand I-14 conjugated, modification pattern not given here)”, for which the IC50 came to 0.973 nM. For “TJR103635-TJ-16: RNAi agent containing targeting ligand I-14: SS strand SEQ ID NO: 23, AS strand SEQ ID NO: 49 (sense AGAGGAGGAGCGUGCAGAA; antisense UUCUGCACGCUCCUCCUCUUC; targeting ligand I-14 conjugated, modification pattern not given here)” the value was 0.636 nM; for “TJR103633-TJ-16: RNAi agent containing targeting ligand I-14: SS strand SEQ ID NO: 21, AS strand SEQ ID NO: 47 (sense CUGUCAGCAUCAGCAUCAA; antisense UUGAUGCUGAUGCUGACAGCA; targeting ligand I-14 conjugated, modification pattern not given here)”, 0.343 nM. The substance “TJR103637-TJ-16: RNAi agent containing targeting ligand I-14: SS strand SEQ ID NO: 25, AS strand SEQ ID NO: 51 (sense CUUUUCUUUUUCCCUUGAA; antisense UUCAAGGGAAAAAGAAAAGGG; targeting ligand I-14 conjugated, modification pattern not given here)” showed an IC50 of 0.83 nM. The substance “TJR103636-TJ-16: RNAi agent containing targeting ligand I-14: SS strand SEQ ID NO: 24, AS strand SEQ ID NO: 50 (sense CAGUCGGAGCUAAUGGUGA; antisense UCACCAUUAGCUCCGACUGCA; targeting ligand I-14 conjugated, modification pattern not given here)” gave an IC50 of 0.287 nM. Turning to “TJR103634-TJ-16: RNAi agent containing targeting ligand I-14: SS strand SEQ ID NO: 22, AS strand SEQ ID NO: 48 (sense GACCAACUCUCUCCUGUAA; antisense UUACAGGAGAGAGUUGGUCUG; targeting ligand I-14 conjugated, modification pattern not given here)”, the IC50 was 0.378 nM.

The values are drawn from EP4768032A1, “RAGE-TARGETED RNAI AGENT AND PHARMACEUTICAL USE THEREOF” (Tuojie Biotech (Shanghai) Co., Ltd., priority 2023, dated 2025).
